Laboratory results: US20030180398A1, “Composition for treating gastric ulcer and a process for preparing the same” (priority 2002, published 2003)

How the values were obtained:
[1] = test system: Aspirin induced gastric ulcer; experiment: Aspirin induced gastric ulcer model; type: in vivo, rats
Protocol: Gastric ulceration was induced by aspirin according to the method of Djahanguiri (1969). Aspirin (150 mg/Kg.) was administered per orally as a suspension in gum-acacia and the animal was sacrificed 5 hr. after the aspirin treatment and the ulcer index with protection index were calculated.

[2] = test system: Cold Restraint Ulcer (CRU); experiment: Cold Restraint Ulcers (CRU) model; type: in vivo, rats
Protocol: Adult rats of either sex, weighing 150-175 grams are fasted for 24 hours in metallic cages with raised mesh bottoms to prevent coprophagia and were allowed free access to water. The test drugs were administered 45 minutes before immobilizing the animals. The rats were immobilized in the restraint cage and kept at 4° C. in BOD incubator for 2 hours (According to the method of Senay and Levine 1967). The animals were sacrificed immediately after the restraint period. The abdomen was cut opened; stomach was taken out and incised along the greater curvature to observe the gastric lesions with the help of Magnascope (5× magnification)
The following arbitrary scoring system was used to grade the severity and intensity of the lesions:
1. Shedding of epithelium=10
2. Petechial and frank hemorrhages=20
4. More than two ulcers=40
The presence of any of these lesions was considered as a positive ulcerogenic response which has been shown as percentage of rats showing gastric lesions. The severity of ulcers is expressed in terms of ulcer index, which is the mean score of gastric lesions of all the rats in a group. The term Ulcer Index is defined as:
Ulcer Index (U.I.)=Us+Up×10^−1
where Us=Mean severity of ulcer score and
Up=Percentage of animals with Ulcer incidences
The percentage protection is calculated as follows:
Percentage protection=(C−T/C)×100.
where C=Number of animals showing ulcer response in control group and
T=Number of animals showing ulcer response in test group.

[3] = test system: pyloric ligation induced ulcer; experiment: Pyloric ligation induced ulcer model; type: in vivo, rats
Protocol: 1. Animals were fasted for 24 hours in the raised mesh bottom cages to prevent coprophagia and were allowed free access to water. 2. The control group of rats was feed with the vehicle and the experimental groups with their respective drugs 45 minutes prior to the ligation. 3. The animal was anesthetized, abdomen was cut opened under xiphoid process, and the pyloric portion of the stomach was slightly lifted and ligated avoiding any damage to the adjacent blood vessels (According to the method of Shay et al. 1945). 4. The animals were stitched and kept for 4 hours with free access to water. 5. After 4 hours the animals were sacrificed under ether anesthesia and the stomach was dissected out incised along the greater curvature. 6. The stomach was washed thoroughly and the ulcer index was scored as per in other ulcer models.

[4] = test system: histamine induced duodenal ulcer; experiment: Histamine induced duodenal ulcer model; type: in vivo, Guinea pig
Protocol: 1. Animals were fasted for 24 hours with access to water.
2. The drug was given orally 1 hour prior to the histamine administration.
3. Histamine was administered in a dose of 0.25 mg/Kg, i.m. at 30 minutes interval for 7 times and it induced 100% duodenal ulceration in guinea pig (According to the method of Watt and Eagleton 1964).
4. The animals were sacrificed after half an hour of last injection under ether anesthesia.
5. The stomach along with duodenum were removed washed thoroughly and examined for the lesions. Ulcer index and protection index were calculated.

[5] = test system: Alcohol induced gastric ulcers; experiment: Alcohol (ethanol) induced gastric ulcers in rats; type: in vivo
Protocol: 1. Adult rats of either sex were taken; weighing 150-175 grams were fasted for 24 hours with free access to water.
2. The test drugs were administered (p.o.) 45 minutes before alcohol administration.
3.1 ml of chilled absolute alcohol was administered (p.o.) to the rats (According to the Wittetal).
4. Immediately after 1 hour, the animals were anesthetized, abdomen was cut opened stomach was taken out and incised along the greater curvature to observe the gastric lesions.
The ulcers are examined under the 5× magnification with the help of magnascope.
Absolute ethanol lesions appears as blackish lesions grouped in patches of varying size, usually parallel to the major axis of the stomach.
5. The lengths of the lesions are measured and summated to give a total lesion score, then calculated and expressed in percentage.

[6] = Aspirin 150 mg/Kg p.o., 20 mg/Kg

For COc1ccc2[nH]c([S+]([O-])Cc3ncc(C)c(OC)c3C)nc2c1 (centres unmarked) [Omeprazole], the “Mean severity of ulcer score” value [1, 6] was 6.6, the “Percentage of ulcer incidence (No. of rats showing ulcer/total No. of rats used)” value [1, 6] was 50 (3/6) % and the Ulcer index [1, 6] was 5.66. The “Ulcer severity score 10 (Shedding of epithelium), No. of rats showing lesions/No. of rats tested” value [1, 6] was 2/6, the “Ulcer severity score 20 (Petechial and frank hemorrhages), No. of rats showing lesions/No. of rats tested” value [1, 6] was 1/6 and the Protection index ([1]; Aspirin 150 mg/Kg p.o., 20 mg/Kg, versus aspirin control) was 54.81. For the same compound, the “Percentage protection in respect to the protection of Omeprazole” value (“Percentage protection” for short) ([1]; aspirin induced ulcer, 10 mg/Kg, standard taken as 100%) was 100%, the “Mean severity of ulcer score” value ([2]; 10 mg/Kg p.o.) was 07 and the “Percentage of ulcer incidence (No. of rats showing ulcer/total No. of rats used)” value ([2]; 10 mg/Kg p.o.) was 50 (5/10) %. For the same compound, the Ulcer index ([2]; 10 mg/Kg p.o.) was 5.7, the “Ulcer severity score 10 (Shedding of epithelium), No. of rats showing lesions/No. of rats tested” value ([2]; 10 mg/Kg p.o.) was 3/10 and the “Ulcer severity score 20 (Petechial and frank hemorrhages), No. of rats showing lesions/No. of rats tested” value ([2]; 10 mg/Kg p.o.) was 2/10. The Protection index ([2]; 10 mg/Kg p.o., versus CRU control) was 54.03, the “Percentage protection” value ([2]; 10 mg/Kg, standard taken as 100%) was 100% and the “Ulcer index” value ([3]; Ligation, 10 mg/Kg p.o.) was 6.6. For the same compound, the “Protection index” value ([3]; Ligation, 10 mg/Kg p.o., versus ligation control) was 51.44, the “Percentage protection” value ([3]; pyloric ligation induced ulcer, Omeprazole taken as 100%) was 100% and the “Mean severity of ulcer score” value ([4]; Histamine i.m., 10 mg/Kg p.o.) was 6.66. The “Percentage of ulcer incidence (No. of animals showing ulcer/total No. of animals used)” value ([4]; Histamine i.m., 10 mg/Kg p.o.) was 33.33 (1/3) %, the Ulcer index ([4]; Histamine i.m., 10 mg/Kg p.o.) was 3.99 and the “Ulcer severity score 20, No. Guinea pig showing lesions/No. Guinea pig tested” value ([4]; Histamine i.m., 10 mg/Kg p.o.) was 1/3. The “Volume of gastric fluid” value ([4]; Histamine i.m., 10 mg/Kg p.o.) was 1.0 ± 0.2 mL, the “% Protection” value ([4]; Histamine i.m., 10 mg/Kg p.o., versus ulcer control) was 70.79% and the “Percentage protection” value ([4]; histamine induced duodenal ulcer, Omeprazole taken as 100%) was 100%. For the same compound, the “Length of hemorrhagic bands (mm ± SE)” value ([5]; 100 mg/Kg p.o. + Ethanol) was 56.0 ± 9.12 mm and the “Percentage protection” value ([5]; Alcohol induced ulcer, omeprazole taken as 100%) was 100.0%.
